For one data set, the system named is Mtb Erdman. It counts as cell-based, Mycobacterium tuberculosis.
A further data set relates to Mtb biofilm formation. As to the kind of experiment: microbe, parasite or virus in culture. It counts as cell-based. The note with it: Mycobacterium tuberculosis, 504 h, read-out: Biofilm inhibition IC50.
Data set [1] deals with H37Rv-GFP Mtb in murine RAW 264.7 macrophages. It counts as cell-based, Mycobacterium tuberculosis.
Data set [2] relates to murine RAW 264.7 macrophages. As to the kind of experiment: Cytotoxicity assay on murine macrophages. Type of data set: cell-based, mouse. The note with it: 5 days, total cell number vs DMSO 1%. The procedure: Mouse macrophage RAW 264.7 cells (ATCC # TIB-71) were maintained in RPMI-1640 + GlutaMAX containing 10% heat-inactivated fetal bovine serum (FBS, 10270106, Gibco). Macrophages were harvested using Versene (15040033, LifeTechnologies).
For assay plate preparation, the lead compounds were diluted in DMSO (Sigma-Aldrich) to 10 mg/mL and dispensed in Echo-qualified 384-well low dead volume source plates using the Echo 550 Series Liquid Handler (Labcyte). The compounds were transferred to 384-well clear-bottom polystyrene assay plates (781091, Greiner Bio-One) using acoustic liquid handling technology. All samples were backfilled with DMSO.
The cellular suspension (50 μL containing 20,000 cells) was added to the 384-well assay plate and incubated for 5 days at 37 °C, 5% CO2. Macrophages were then stained with SYTO 60 dye (S11342, Molecular probes), followed by image acquisition and data analysis. Confocal images were recorded on an automated high-content fluorescence microscope (InCell 6500, Cytiva). A series of four pictures of each well were taken, and each image was then analyzed using the Columbus system to infer the total number of cells. Dose–response plots were generated for each compound using GraphPad Prism software.

In another data set the test system is HEK 293. The note with it: for HEK 293 LD50: 48 h, MTT; for Therapeutic index, LD50 in HEK 293 / MABA IC50: 48 h treatment, MTT assay. (Tetrazolium dyes change colour on reduction, which living cells bring about.)
The subject of data set [3] is wild-type (WT) Mtb Erdman. As to the kind of experiment: microbe, parasite or virus in culture. Type of data set: cell-based, Mycobacterium tuberculosis. The note with it: read-out: MABA mean IC50 ± SD.
A further data set has as its system Calu-3 cells. The note with it: for Calu-3 LD50: 72 h, CellTiter-Glo, 50% decrease in cellular ATP, IMD salts; for Therapeutic index, LD50 in Calu-3 / MABA IC50: 72 h treatment, CTG assay. Background: Cellular ATP, detected with luciferase, serves as a proxy for viable cell number.
Another data set has as its system Mtb katG^FS. Type of data set: cell-based, Mycobacterium tuberculosis.
A further data set concerns IMR-90. The note with it: for IMR-90 LD50: 48 h, MTT.
The test system of a further data set is BEAS-2B. The note with it: for BEAS-2B LD50: 48 h, MTT; for Therapeutic index, LD50 in BEAS-2B / MABA IC50: 48 h treatment, MTT assay.
The test system of a further data set is Caco-2 cells. The note with it: membrane integrity control, 5 μM; cited from earlier work.
The nature of another data set: in vitro. The note with it: human, Caco-2, pH 7.4.
The next data set concerns the target T1, CYP3A4 (Homo sapiens, UniProt P08684).
T1 construct: from tissue; host or cells: human liver microsomes
As to the kind of experiment: CYP3A4 inhibition in human liver microsomes. The note with it: HLM. It counts as in vitro ADME. (In general: Microsomes from liver hold many membrane-bound enzymes, among them those of drug oxidation.)

A further data set deals with CYP2C9 (Homo sapiens, UniProt P11712). As to the kind of experiment: CYP2C9 inhibition in human liver microsomes. The note with it: for % 4 OH-diclofenac activity: HLM.
CYP2C9, sequence (P11712 whole entry): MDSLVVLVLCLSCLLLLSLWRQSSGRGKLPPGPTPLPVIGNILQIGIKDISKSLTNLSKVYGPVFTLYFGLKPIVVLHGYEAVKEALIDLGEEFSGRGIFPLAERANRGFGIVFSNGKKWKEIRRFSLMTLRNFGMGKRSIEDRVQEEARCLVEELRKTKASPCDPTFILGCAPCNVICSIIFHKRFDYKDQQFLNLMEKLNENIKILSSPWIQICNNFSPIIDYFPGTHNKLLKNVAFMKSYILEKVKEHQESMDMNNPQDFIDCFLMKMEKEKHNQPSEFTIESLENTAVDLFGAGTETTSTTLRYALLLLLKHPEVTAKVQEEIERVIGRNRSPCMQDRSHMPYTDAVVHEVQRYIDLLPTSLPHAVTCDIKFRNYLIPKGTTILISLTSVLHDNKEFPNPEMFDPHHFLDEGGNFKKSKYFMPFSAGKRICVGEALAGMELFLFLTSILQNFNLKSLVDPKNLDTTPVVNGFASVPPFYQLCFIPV
[4] abbreviates: Mycobacterium tuberculosis, ERDMAN.

Here are results for eight compounds from PMC10461229 (Journal of Medicinal Chemistry, 2023).

Where two headings read alike, the source gives them in different places.

T1 sequence (P08684 whole entry): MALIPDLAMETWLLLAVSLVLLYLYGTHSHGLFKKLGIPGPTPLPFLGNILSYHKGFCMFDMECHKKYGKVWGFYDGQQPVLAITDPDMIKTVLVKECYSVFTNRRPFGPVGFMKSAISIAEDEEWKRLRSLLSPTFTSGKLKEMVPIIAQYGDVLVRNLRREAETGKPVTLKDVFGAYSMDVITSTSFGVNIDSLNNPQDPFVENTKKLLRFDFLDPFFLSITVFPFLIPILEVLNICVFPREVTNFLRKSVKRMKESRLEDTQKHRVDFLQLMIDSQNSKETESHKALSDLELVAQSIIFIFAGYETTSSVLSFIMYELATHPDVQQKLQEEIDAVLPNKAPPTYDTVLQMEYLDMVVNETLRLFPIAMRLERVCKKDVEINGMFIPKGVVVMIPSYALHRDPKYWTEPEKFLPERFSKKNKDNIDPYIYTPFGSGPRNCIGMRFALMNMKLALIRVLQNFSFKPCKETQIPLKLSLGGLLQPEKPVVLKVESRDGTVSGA

Broadly, the IC50 is the midpoint of a concentration-inhibition curve. As for `O=C(O)C1CSc2c(C3CC3)c(-c3cc(-c4ccc5ccccc5c4)no3)cc(=O)n21` (racemic) [Compound 17h, (±) 8-Cyclopropyl-7-(3-(naphthalen-2-yl)isoxazol-5-yl)-5-oxo-2,3-dihydro-5H-thiazolo[3,2-a]pyridine-3-carboxylic Acid], the “inhibition of OD600 of Mtb cultures in the presence of tyloxapol” value in the data set with Mtb Erdman was “neither 17h nor 17j inhibited the OD600 of Mtb cultures”. For the same compound, the IC50 in the data set with Mtb biofilm formation was found to be 3.47 ± 1.21 µM. The “inhibition of intracellular Mtb replication in macrophages” value in data set [1] is recorded as “inhibited intracellular mycobacteria at concentrations lower than C10”. In addition, in data set [2], the “cytotoxicity for uninfected murine RAW 264.7 macrophages” value is “not cytotoxic”. Also, in the data set on HEK 293, the “HEK 293 LD50” value amounted to 101.6 µM and the “Therapeutic index, LD50 in HEK 293 / MABA IC50” value stood at 144.5. Moreover, the half-inhibitory concentration (IC50) in data set [3] (setting [4]) was 0.703 µM. Also, the 50% inhibitory concentration (IC50) in data set [3] is 0.7 ± 0.05 µM. Further, in the data set on Calu-3 cells, the “Calu-3 LD50” value was greater than 250 µM and the “Therapeutic index, LD50 in Calu-3 / MABA IC50” value was greater than 355. In addition, in the data set on Mtb katG^FS, the “Mtb katG^FS CFU after 13 days, combination with INH” value is recorded as “below the input dose” and the “Mtb katG^FS CFU after 13 days, compound alone vs control” value is given as “no difference in CFU”. In addition, the “IMR-90 LD50” value with IMR-90 amounted to 122.5 µM. Also, in the data set on BEAS-2B, the “BEAS-2B LD50” value was 143.1 µM and the “Therapeutic index, LD50 in BEAS-2B / MABA IC50” value was 203.5.
For the compound `NNC(=O)c1ccncc1` [INH, isoniazid], the “surviving Mtb katG^FS after 13 days of treatment” value in the data set on Mtb katG^FS is reported as 8.09 × 10^8 CFU/mL.
With `C[C@H](N[C@@H](CCc1ccccc1)C(=O)O)C(=O)N1CCC[C@H]1C(=O)O` [enalaprilat], the “Papp of enalaprilat for a tight monolayer” value with Caco-2 cells is given as < 1 × 10^–6 cm/s.
For `O=C(O)C1CSc2c(C3CC3)c(Cc3cccc4ccccc34)cc(=O)n21` (stereo not shown) [Compound C10, reference compound], in the data set on Mtb biofilm formation, the IC50 turned out to be 8.28 ± 3.23 µM. In addition, the “cytotoxicity for uninfected murine RAW 264.7 macrophages” value in data set [2] is given as “not cytotoxic”. Further, in the data set on HEK 293, the “HEK 293 LD50” value worked out at 151.7 µM and the “Therapeutic index, LD50 in HEK 293 / MABA IC50” value is given as 10.5. Also, the IC50 in [3] (setting [4]) worked out at 14.4 µM. Further, the 50% inhibitory concentration (IC50) in [3] stood at 14.4 µM. For the same compound, in the data set on Calu-3 cells, the “Calu-3 LD50” value turned out to be 160.4 µM and the “Therapeutic index, LD50 in Calu-3 / MABA IC50” value was 11.1. Moreover, in the data set on Mtb katG^FS, the “Mtb katG^FS CFU after 13 days, combination with INH” value is listed as “did not inhibit the survival of Mtb katG^FS beyond the effect of INH alone” and the “Mtb katG^FS CFU after 13 days, compound alone vs control” value is listed as “no difference in CFU”. In addition, the “IMR-90 LD50” value in the data set with IMR-90 was 147.1 µM. Besides, the “Therapeutic index, LD50 in IMR-90 / MABA IC50” value in the data set on IMR-90 (48 h treatment, MTT assay) is 10.1. In the data set with BEAS-2B, the “BEAS-2B LD50” value was 146.2 µM and the “Therapeutic index, LD50 in BEAS-2B / MABA IC50” value is recorded as 10.1.
In general, Papp A→B refers to the apparent permeability from the apical to the basolateral side of a cell layer. The low end stands for poor permeation, the high end for ready permeation. In turn, `CC(C)(C)c1ccc(-c2nnc(SCc3cc(=O)n4c(c3C3CC3)SCC4C(=O)O)o2)cc1` (racemic) [Compound 8f, (±) 7-(((5-(4-(tert-Butyl)phenyl)-1,3,4-oxadiazol-2-yl)thio)methyl)-8-cyclopropyl-5-oxo-2,3-dihydro-5H-thiazolo[3,2-a]pyridine-3-carboxylic Acid] returned an apical-to-basolateral permeability (Papp A→B) in “in vitro” of 3.3 ×10⁻⁶ cm/s. Further, the “% 1OH-midazolam activity” value came to 108 ± 4.1% at CYP3A4 (1 μM compound), 117 ± 1.4% on CYP3A4 (10 μM compound) and 84 ± 5.0% on CYP3A4 (100 μM compound). In addition, the “% 6OH-testosterone activity” value on CYP3A4 (1 μM compound) turned out to be 98 ± 4.0%; at CYP3A4 (10 μM compound) it was 94 ± 5.8%; on CYP3A4 (100 μM compound), 60 ± 1.9%. Besides, the 50% inhibitory concentration (IC50) in [3] (setting [4]) is 6.2 µM; in [3], 6.19 ± 0.67 µM; against CYP2C9, 10 to 100 µM. Further, the “% 4 OH-diclofenac activity” value is 100 ± 2.7% on CYP2C9 (1 μM compound), 93 ± 6.7% on CYP2C9 (10 μM compound) and 31 ± 3.6% on CYP2C9 (100 μM compound).
The compound `CC(C)(C)c1ccc(-n2cc(-c3cc(=O)n4c(c3C3CC3)SCC4C(=O)O)nn2)cc1` (racemic) [Compound 15d, (±) 7-(1-(4-(tert-Butyl)phenyl)-1H-1,2,3-triazol-4-yl)-8-cyclopropyl-5-oxo-2,3-dihydro-5H-thiazolo[3,2-a]pyridine-3-carboxylic Acid] had an apparent permeability from apical to basolateral (Papp A→B) at 2 µM in the data set “in vitro” of 0.88 ×10⁻⁶ cm/s. The “% 1OH-midazolam activity” value on CYP3A4 (1 μM compound) was determined as 102 ± 1.4%; at CYP3A4 (10 μM compound), 95 ± 2.7%; on CYP3A4 (100 μM compound), 67 ± 1.5%. For the same compound, the “% 6OH-testosterone activity” value at CYP3A4 (1 μM compound) was found to be 105 ± 1.0%; at CYP3A4 (10 μM compound), 101 ± 3.9%; at CYP3A4 (100 μM compound) it was 75 ± 1.9%. In addition, the results for the IC50 (in data set [3] (setting [4]); against CYP2C9) were 5.67 ± 0.82 µM and 1 to 10 µM, respectively. For the same compound, the “% 4 OH-diclofenac activity” value at CYP2C9 (1 μM compound) is recorded as 83 ± 4.6%; on CYP2C9 (10 μM compound), 32.9 ± 1.0%; at CYP2C9 (100 μM compound) it was 2.61 ± 0.29%.
With `O=C(O)C1CSc2c(C3CC3)c(-c3cc(-c4ccnc5ccccc45)no3)cc(=O)n21` (racemic) [Compound 17p, (±) 8-Cyclopropyl-5-oxo-7-(3-(quinolin-4-yl)isoxazol-5-yl)-2,3-dihydro-5H-thiazolo[3,2-a]pyridine-3-carboxylic Acid], the IC50 in data set [3] (setting [4]) was 11 ± 1.48 µM.
For the compound `O=C(O)C1CSc2c(C3CC3)c(-c3cc(-c4ccc(F)c5ccccc45)no3)cc(=O)n21` (racemic) [Compound 17m, (±) 8-Cyclopropyl-7-(3-(4-fluoronaphthalen-1-yl)isoxazol-5-yl)-5-oxo-2,3-dihydro-5H-thiazolo[3,2-a]pyridine-3-carboxylic Acid], the half-inhibitory concentration (IC50) in [3] (setting [4]) amounted to 4 ± 0.67 µM.
